# Results taken from patent US10478464B2, “Compositions and methods of use” (priority 2009, dated 2019).
# Assays:
# HeLa cells = assay: HeLa cell viability by Alamar Blue assay; type: cell-based; settings: 24, 48 and 72 hrs
# Description: Assessment of cell viability by alamar blue reduction method is routinely used for illustrating cytotoxic potential of candidate drugs. Alamar blue detects cell viability by utilizing a blue non-fluorescent dye resazurin, which is converted to a pink fluorescent dye, resorufin by cellular metabolic intermediates. The fluorescent signal generated from the assay is proportional to the number of living cells in the sample. Confluent HeLa cells (70-80%) grown in T-75 flasks were detached using trypsin-EDTA. Following centrifugation, the cells pellet was resuspended in DMEM medium and counted using a hemocytometer. Cells were seeded into 96 well plate at a density of 10,000 cells/100 μl/well and incubated at 37° C./5% CO2 for 8 hrs. Media was removed and test compounds were added in the volume of 100 μl. […] At the end of 24, 48 & 72 hrs treatment with test compound, fluorescence was measured at 530 excitation and 590 nm emissions using a micro plate reader. Viability expressed as % control was plotted against drug concentration.
# The mean value of duplicate wells was calculated. […] The percentage of cell viability of test samples was calculated as:
# [formula] IC50 values were determined by nonlinear regression analysis (curve fit) of percent viability data against drug concentration using the sigmoidal dose-response (variable) equation (Graph Pad Prism 4 software).
# [1] = tested on: HOP-92 lung cancer cell lines; assay: Cell survival, colorimetric MTT assay, HOP-92; type: cell-based, human; settings: 72 hours; for reduced the survival of HOP92 cell lines by: 100 μM
# Protocol: 1) Against the lung cancer cell lines: The effect of the racemic mixture of 8-HHA and that of the individual enantiomers, namely S and R enantiomers, were examined on the survival of HOP-92 lung cancer cell lines. The cell viability was examined in the exponential growth phase with 100 μM of 8-HHA for 72 hours using colorimetric MTT assay. In separate assays, HOP-92 cells were treated with different concentrations of the S-enantiomer of 8-HHA ranging from 20-100 μM for 72 hours.
# Bim1 = assay: Pro-apoptotic Bim1 in HOP92 cells; type: cell-based, human; settings: 100 μM, 72 hours
# Protocol: Bim1 is a pro-apoptotic protein whose up regulation leads to apoptosis. HOP92 cell lines were treated with 100 μM of S-enantiomer of 8-HHA for 72 hours.
# PARP [2] = assay: PARP cleavage in PLC-5 liver cancer cells; type: cell-based; settings: PLC-5 cells, 100 μM
# Description: (§1) PARP cleavage is considered a specific and well established marker of apoptosis. During apoptosis, FAS receptor undergoes down regulation, which is considered as an established indicator of apoptosis. Apoptosis can be induced by a pathway stimulated by FAS receptor binding to FAS ligand and is called extrinsic mechanism. Apoptosis by this pathway results in the reduction of FAS receptor.
# (§2) 1) Against liver cancer cell lines: The effect of 8-HHA was examined on apoptosis in liver cancer cell lines.
# [3] = tested on: SNU449 liver cancer cell line; assay: Cell survival, colorimetric MTT assay, SNU449; type: cell-based; settings: 100 μM, 72 hours
# Protocol: (§3) 2) Against the liver cancer cell lines: The effect of the racemic mixture of 8-HHA and that of the individual enantiomers, namely S and R enantiomers, were examined on survival of PLC/PRF/5 (also referred to as “PLC-5” or “PLC5”), Hep3B and SNU449 (also referred to as “SNU”) liver cancer cell lines. The cell viability was examined in the exponential growth phase with 100 μM of 8-HHA for 72 hours using colorimetric MTT assay. In separate assays, PLC-5 cells were treated with different concentrations of S-enantiomer of 8-HHA ranging from 20-100 μM for 72 hours.
# FAS receptor [4] = assay: FAS receptor levels in PLC-5 cells; type: cell-based; settings: 100 μM, 72 hours
# Protocol: as §1
# PLC-5 cell lines were treated with […] 100 μM for 72 hours.
# [5] = tested on: Hep3B liver cancer cell line; assay: Cell survival, colorimetric MTT assay, Hep3B; type: cell-based; settings: 100 μM, 72 hours
# Protocol: as §3
# FAS receptor [6] = assay: FAS protein levels in HOP-92 cells; type: cell-based, human; settings: HOP92 cells, 100 μM, 72 hours
# Protocol: as §1
# 2) Against lung cancer cell lines: HOP-92 lung cancer cell lines were treated with 100 μM of (S)-8-HHA for 72 hours.
# [7] = tested on: PLC/PRF/5 liver cancer cell line; assay: Cell survival, colorimetric MTT assay, PLC/PRF/5; type: cell-based; settings: 72 hours
# Protocol: as §3
# PARP [8] = assay: PARP cleavage in SNU liver cancer cells; type: cell-based; settings: 100 μM
# Description: as §1, §2
Compound,"HeLa cell viability, result in words (HeLa cells)",reduced the survival of HOP92 cell lines by [1],Bim1 increase compared to the control sample (Bim1),PARP cleavage (PARP [2]),effect on survival of SNU cell line [3],FAS receptor levels compared to the control (FAS receptor [4]),reduced the survival of Hep3B cell line by [5],FAS protein levels (FAS receptor [6]),"IC50 ([1]; Homo sapiens, HOP-92, 20-100 μM, read-out: 50% reduction in cell survival (IC50))",reduced the survival of PLC-5 cell line by ([7]; 100 μM),"IC50 ([7]; Homo sapiens, PLC-5, 20-100 μM, read-out: 50% reduction in cell survival (IC50))",PARP cleavage (PARP [8])
CC(C)(C)c1ccc(C(O)CCCN2CCC(C(O)(c3ccccc3)c3ccccc3)CC2)cc1 (stereo not shown) [Terfenadine],dose dependent inhibition,,,,,,,,,,,
"CCCCCCCC[C@@H](O)CCCCCCC(=O)O [(R)-8-HHA, 8(R)-hydroxypalmitic acid]",,13%,,,,,,,,,,
"CCCCCCCC[C@H](O)CCCCCCC(=O)O [(S)-8-HHA, 8(S)-hydroxypalmitic acid]",,72%,2 fold,resulted in the PARP cleavage,~75%,substantial reduction in FAS receptor levels,~75%,reduction of FAS protein levels,~90 µM,~75%,~50 µM,resulted in the PARP cleavage
